Data from a melting point compilation (Tetko et al.; mined from patent text by program, amines drawn as free bases though some values may be those of a salt).

Structure (SMILES) | melting point [°C]
CC(C)CC(=O)Nc1cccc(-c2ccnc3c(-c4cccc(CN5CCN(C)CC5)c4)cnn23)c1 | 135 to 138
COc1ccc(S(=O)(=O)C2(Cc3ccccc3)SC(=O)N(CC(=O)NO)C2=O)cc1 (stereo not given) | 81 to 85
Cc1cc2cccc(-c3ccc(Cl)cc3Cl)n2n1 | 86.9 to 90
c1cc(-c2nc3c4c(ncc3[nH]2)CCOC4)no1 | > 300
CC(C)c1ccc(C2c3cc(NC(=O)CC(C)(C)C)ccc3OC2(C)C)cc1 (stereo not given) | 126 to 127
CCCCCC(C(=O)c1ccccc1)C(=O)c1ccccc1 | 68.5 to 69.5
O=[N+]([O-])c1[nH]c(-c2c(Cl)cc(C(F)(F)F)cc2Cl)nc1Br | 292 to 293
CC1(C)C(=O)N(c2ccc(C#N)c(C(F)(F)F)c2)C(=S)N1CCCO | 149 to 150
CCOC(=O)C1(CC(=O)O)C(=O)C=C(OCc2ccccc2)CC1c1ccc(C)cc1 (stereo not given) | 217
O=C(NCCNCCNC(=O)c1cccc2cc3ccccc3nc12)c1cccc2cc3ccccc3nc12 | 182 to 184
NN=Cc1ccc(CC(=O)NC2CCC3(CC2)CN(CC(=O)O)C(=O)O3)cc1 (stereo not given) | 193 to 196
O=c1[nH]c2ccccc2c(=O)n1C1CCCCC1 | 236 to 238
O=C(O)c1ccccc1NCCC=C1c2ccccc2CCc2ccccc21 | 164 to 167
Cc1cc2oc(=O)c(NC(=O)Nc3cccc(C(F)(F)F)c3)c(-c3ccccc3C)c2cc1Cl | 203 to 205
NC(=O)c1ccc(Sc2ccc(Cl)cc2)c(Cl)c1 | 176 to 177
COCCOCCOCC(=O)Nc1cc(N)cc(C(=O)O)c1 | 130 to 131
Cc1oc(-c2ccccc2)nc1CCc1noc(COc2ccccc2CC(=O)O)n1 | 120 to 121
COC(=O)Cc1cc(Br)ccc1OCc1ccc(OCc2nc(-c3ccccc3)oc2C)cc1 | 100 to 101
CCC(CC)Nc1nc(N)nc(C(C)(C)F)n1 | 104 to 106
NCC1CN(c2cc3c(cc2F)c(=O)c(C(=O)O)cn3C2CC2)C1 | 205 to 211
CCOC(=O)C(Oc1cc(-c2ccccc2)on1)C(=O)OCC | 62 to 64
Clc1nc(-c2cccnc2)sc1NC1CC1 | 56 to 60
CCOC(=O)CC(NC(=O)c1ccc(OC)cc1)C(=O)c1ccco1 (stereo not given) | 104 to 106
O=C1c2cccc(SCCC(O)O)c2C(=O)c2cccc(SCCC(O)O)c21 | 238 to 239

Structure (SMILES) | melting point [°C]
CC(=O)OC(C(=O)N(C)c1ccc(N(C)C(=O)C(OC(C)=O)c2ccccc2)cc1)c1ccccc1 (stereo not given) | 180 to 183
CCCC1=C(C(=O)OCC)SCCS1=O (stereo not given) | 109 to 110
COc1cc(Nc2nccc(-c3ccc(N4CCNCC4)nc3)n2)cc(OC)c1OC | 103
COCCn1nc2c(N)nc3ccccc3c2c1CC(C)(C)N | 199 to 200
CCN(CC)C(=O)C(C)Cc1nc(-c2ccccc2)nc2ccccc12 (stereo not given) | 93.5
COc1cc2c(-c3ccncc3)c(C(=O)O)oc(=O)c2cc1OC | > 250
c1ccc(-c2cccc(N(c3ccccc3)c3ccc4c(c3)Oc3ccc(N(c5ccccc5)c5cccc(-c6ccccc6)c5)cc3O4)c2)cc1 | 232
NS(=O)(=O)c1ccc(C2(c3nc4cc(F)ccc4[nH]3)C=C(C(F)(F)F)NN2)cc1 (stereo not given) | 309 to 310
CC#COc1ccc2c(=O)c(C)c(-c3ccccc3)oc2c1 | 179 to 180
COc1cc2c(cc1O)CCN(Cc1cccc(OC)c1OC)C2 | 101 to 102
CCOC(=O)Cc1cnn(C)c1O | 104 to 105
CC1(C(=O)P(=O)(c2ccccc2)c2ccccc2)CCCCC1 | 80
COc1ccc(Cc2sccc2OC2OC(CO)C(O)C(O)C2O)cc1 (stereo not given) | 154 to 155
O=S(=O)(Nc1ccccc1)c1ccc(-c2cnn3c(O)ncnc23)cc1 | 274 to 277
CC(=O)NC[C@H]1CN(c2ccc(N3CCC(C#N)(Nc4ccc(C#N)cc4)CC3)c(F)c2)C(=O)O1 | 210 to 212
CCOC(=O)/C(CCO)=C(\c1ccc(Cl)cc1)c1ccc(S(C)(=O)=O)cc1 | 128
CCOC(=O)[C@]1(O)C=C[C@@H](NC(C)=O)[C@@H]2OC(C)(C)O[C@@H]21 | 97 to 99
CC(C)(C)c1cc(-c2ccccc2)c(Oc2cccc(C#N)c2C#N)c(-c2ccccc2)c1 | 189 to 192
COC(=O)COc1ccc(C)c2c1c1c(n2Cc2ccccc2)CCCC1C(N)=O (stereo not given) | 209
CCCc1cc2c(NC(=S)N3Cc4ccccc4CC3CCO)cccc2cn1 (racemic) | 175
COC(=O)CNC(=O)CC(O)CBr (stereo not given) | 60 to 61
CCCSc1ccc(N)c(C(=O)O)c1 | 91 to 93
CCC1(CC)c2cc(Br)ccc2-c2ccc(-c3nc4ccccc4s3)cc21 | 134 to 135
Nc1nccc(-c2c[nH]c3nccc(Cl)c23)n1 | > 210

Structure (SMILES) | melting point [°C]
Cc1nnc(-c2ccccc2)c2nc(OCc3ncnn3C)c(C3CCCC3)n12 | 137
CCCc1nn(-c2ccc(C(F)(F)F)cn2)cc1CCCOc1nn(C2CCCCC2)cc1CC(=O)O | 127 to 128
CCCCn1c(=O)c2c(NC)n[nH]c2n(Cc2ccc(Cl)cc2)c1=O | 292 to 294
ClCc1ccccc1-c1ccccc1-c1ccccc1CCl | 189 to 190
CCCCn1c(=O)n(CC)c(=O)c2c1ncn2S(=O)(=O)c1ccc(C)cc1 | 135 to 139
COc1ccc(-c2csc(C)n2)cc1OC1CC2CCC1C2 (stereo not given) | 81 to 82
COC(=O)c1cc2c(C)ccc(C)c2n1OC(C)=O | 87 to 88
CC1=Nc2ccc(S(=O)(=O)NC3CCCCC3)cc2S(=O)(=O)N1 | 239 to 242
COc1ccc(-c2ncc(C(=O)O)s2)cc1OC1CCCC1 | 170 to 171
CNC(=O)C(C)Oc1ncn(-c2ccc(C(F)(F)F)cc2)n1 (stereo not given) | 157 to 158
Cc1cn(S(C)(=O)=O)c2c1C(=O)CC(c1cccs1)C2 (stereo not given) | 135 to 136
CC(=O)Nc1nc2n(n1)Cc1ccccc1-2 | 258 to 259
CN(c1cccc2cc(-c3ncc(CCC(=O)O)s3)[nH]c12)S(=O)(=O)c1cccs1 | 234 to 235
CCOc1c(C)c(N2CCN(c3ccc(OC)cc3)CC2)c(C)c2c1OC(C)(C)C2=O | 109 to 112
O=C1c2c(F)c(F)c(F)c(F)c2C(=O)N1c1c[nH]c(=O)[nH]c1=O | 350 to 355
O=C(O)c1cc(Cl)cc(Cl)c1OC1CCOC1=O (stereo not given) | 117 to 120
O=C(NCCCCCCC(=O)c1ncco1)c1cc2ccccc2[nH]1 | 153 to 156
CCOC(=O)c1n[nH]cc1[N+](=O)[O-] | 128 to 130
O=S(=O)(c1ccccc1F)N1CCCC1c1ccc(F)cc1 (racemic) | 91
CCCc1nc(NCc2ccccn2)nc(Nc2cccc(C(C)C)c2)n1 | 103 to 104
O=[N+]([O-])c1c(Br)nn(CCO)c1Br | 103 to 105
COc1ccc(-c2cnc3nccn3c2)cc1OC1CC2CCC1C2 (stereo not given) | 130

Continued, values first:

melting point [°C] | Structure (SMILES)
152 to 154 | C=CC(=O)Nc1csc(Br)n1
125 to 126 | CCCc1c(OCC(O)COc2ccc3ccc(C(=O)O)cc3c2CCC)ccc(C(C)=O)c1O (stereo not given)
140 to 150 | CC1CC2C3CCC4=CC(=O)C=CC4(C)C3=CCC2(C)C1C(=O)CN1CCN(c2cc(NCC(C)(C)C)nc(NCC(C)(C)C)n2)CC1 (stereo not given)
186 | Cc1c(C(=O)Nc2ccc(N3CCC(CCO)CC3)c(C#N)c2)cnn1-c1ccc(F)cc1
213 to 214 | COc1cc2c(cc1OC)C(C(c1ccccc1)N1CCCCC1)OC2=O (stereo not given)
200 to 201 | O=C1Nc2ccc(S(=O)(=O)N3CCCC3)cc2C1=O
115 to 120 | CCCCCc1ccc(OCC(=O)O)c(CCCCC)c1
221 to 222 | COc1cc(Cc2cnc(N)nc2N)cc2c1OC(C)(C)C=C2Cl
228 to 270 | O=c1[nH]c(-c2ccc(CCN3CCN(c4cccc5cc(F)ccc45)CC3)cc2)cs1
32 to 35 | CN(C(=O)c1cccc(F)c1[Si](C)(C)C)C(C)(C)C
100 | CN1CCN(c2nc3c(c(N4CCOCC4)n2)SCCC3)CC1
192 to 194 | O=C1NCCCc2cc(CCN3CCC(c4noc5cc(F)ccc45)CC3)sc21
113 to 118 | CSc1nc(-c2nnn(C)n2)c(I)c(C(F)(F)F)n1
45.6 to 46.8 | C=CC(=O)OCCCCCCOc1ccc(-c2cccc(F)c2F)cc1
134 to 136 | NCCc1ccc(C(N)=O)s1
265 to 267 | O=C(O)c1ccc(Cc2nc3ccccc3[nH]2)cc1
215 to 216 | N#CCCNC(=O)c1cccc(-c2ccc3ccn(-c4ccc(Cl)cc4Cl)c3n2)c1
175 to 176 | O=C1CCNc2c([N+](=O)[O-])cc(Cl)c(Cl)c21
116 to 119 | CC(=O)OC1CC2=CCC3C(CCC4(C)C(C(C)CCCC(C)C)CCC34)C2(C)CC1F (stereo not given)
229 to 231 | CCOCc1nc2c(N)nc3ccccc3c2n1CC(C)(C)CS(N)(=O)=O
> 210 | NCc1cc(-c2csc(N=C(N)N)n2)ccn1
93 to 94 | Cc1ccc(-c2nc(CCl)co2)o1
109 to 111 | COc1ccccc1N1CCN(CCCc2ccc(C3CCC(=O)N3)cc2)CC1 (stereo not given)
140 | CN(C)C(=O)Nc1ccc(Oc2ccc(C(F)(F)F)cc2Cl)cc1
142 to 143 | CC(C)(C)n1ncc(SCc2ccc(Cl)cc2)c(Cl)c1=O
121 to 122 | CCCc1c(OCCOCCOc2ccc3ccc(OCC(=O)O)cc3c2C(C)=O)ccc(C(C)=O)c1O
164 to 165 | O=C(c1ccccc1)c1ccccc1C#CCN1C(=O)c2ccccc2C1=O
131 to 132 | OC(=S)CC1c2ccccc2Oc2ccccc21
34 | CCOCCC(=O)NN
179 | COc1c(NC(=O)c2c(F)cc(F)cc2F)cccc1C(=O)Nc1c(Cl)cc(C(F)(C(F)(F)F)C(F)(F)C(F)(F)F)cc1Br (stereo not given)
